Literature values as cited in PMC3480357, “Fragment-Hopping-Based Discovery of a Novel Chemical Series of Proto-Oncogene PIM-1 Kinase Inhibitors” (PLoS ONE, 2012).

What was measured:
JNK1 = JNK1 (Homo sapiens, UniProt P45983); set-up: method as in PMID 21051136; details: 10 µM; average of two data points; cited from earlier work
MST1 = biological target: T1, MST1 (Homo sapiens, UniProt Q13043); set-up: method as in PMID 21051136; details: 10 µM; average of two data points; cited from earlier work
T1 sequence (Q13043 1-487): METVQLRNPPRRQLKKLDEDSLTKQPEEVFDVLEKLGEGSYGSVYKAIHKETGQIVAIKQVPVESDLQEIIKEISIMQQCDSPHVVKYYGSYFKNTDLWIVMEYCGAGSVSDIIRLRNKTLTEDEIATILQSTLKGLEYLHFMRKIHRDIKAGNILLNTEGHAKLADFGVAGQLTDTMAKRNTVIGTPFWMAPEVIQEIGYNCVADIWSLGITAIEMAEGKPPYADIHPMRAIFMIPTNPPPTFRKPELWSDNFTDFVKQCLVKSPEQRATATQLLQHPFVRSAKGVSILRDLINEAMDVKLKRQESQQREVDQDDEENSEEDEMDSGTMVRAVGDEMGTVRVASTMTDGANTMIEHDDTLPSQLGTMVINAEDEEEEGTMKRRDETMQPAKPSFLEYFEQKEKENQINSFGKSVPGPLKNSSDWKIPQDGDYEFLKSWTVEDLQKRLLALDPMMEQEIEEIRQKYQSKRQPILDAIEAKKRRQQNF

JNK1, sequence (P45983 whole entry, species assumed): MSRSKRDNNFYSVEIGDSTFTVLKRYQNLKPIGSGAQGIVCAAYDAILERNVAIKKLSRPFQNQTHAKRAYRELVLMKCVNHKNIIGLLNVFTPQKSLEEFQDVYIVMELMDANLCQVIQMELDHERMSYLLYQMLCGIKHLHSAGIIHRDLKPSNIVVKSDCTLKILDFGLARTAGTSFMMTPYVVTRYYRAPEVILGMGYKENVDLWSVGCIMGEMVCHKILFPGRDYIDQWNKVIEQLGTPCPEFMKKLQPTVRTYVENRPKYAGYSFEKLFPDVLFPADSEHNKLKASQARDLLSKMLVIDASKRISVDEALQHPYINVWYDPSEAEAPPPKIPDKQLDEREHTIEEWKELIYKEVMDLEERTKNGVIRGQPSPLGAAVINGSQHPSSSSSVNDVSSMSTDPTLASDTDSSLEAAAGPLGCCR

For `Oc1ccc(-c2cnc3ccc(NCc4ccc(F)cc4)nn23)cc1` [Compound 1], the “JNK1 percentage of inhibition” value (JNK1) is listed as 62% and the “MST1 percentage of inhibition” value (MST1) is listed as 82%.
